Results: patent US6365201B1, “Phytodrug for management of peptic ulcer and methods of preparing and using same” (National Institute for Pharmaceutical Research and …, priority 1997, dated 2002)

System: small intestinal transit
Test: Small intestinal transit in mice, charcoal meal method
Assay type: in vivo
Conditions: reference, dose not given
Procedure: Drugs that delay the small intestinal transit time have beneficial effects on ulcer patients. The effect of the Indigofera […] extract on small intestinal transit in mice was tested using the charcoal meal method.

NC[C@H](O)c1ccc(O)c(O)c1 [Noradrenaline]
% distance traveled: 64.6 ± 9.0%
% inhibition: 35.4%
